# Test results: the supplement of paper PMC10331698
# ± gives the standard deviation of the averaged measurements.
# What was measured:
# Assay in all cases: level (log10 ratio to DMSO vehicle control); higher = higher biomarker level / cell amount than vehicle control
# [1] = compound: FC(F)C(F)(F)COCC1CO1 [((2,2,3,3-Tetrafluoropropoxy)methyl)oxirane]; details: in DMSO
# Protocol: (§1)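 BioMAP Diversity Plus panel of 12 human primary cell co-culture systems (3C, 4H, LPS, SAg, BT, BF4T, BE3C, CASM3C, HDF3CGF, KF3CT, MyoF, Mphg). Compounds were added 1 h before stimulation and left for 24 h (MyoF 48 h; BT 72 h for soluble read-outs or 6 d for IgG). Biomarkers were read by ELISA, cytotoxicity by SRB, PBMC viability and proliferation by Alamar Blue. Each well value was divided by the mean of 8 DMSO control wells on the same plate and log10 transformed; duplicate blinded samples were tested at 4 concentrations.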
# [2] = compound: O=C(O)C(F)(F)C(F)(F)C(F)F [4H-Perfluorobutanoic acid]; details: in DMSO
# Protocol: as §1
# [3] = compound: C=CC(F)(F)C(F)(F)C(F)(F)C(F)(F)C(F)(F)C(F)(F)C(F)(F)C(F)(F)C=C [1,8-Divinylperfluorooctane]; details: in DMSO
# Protocol: as §1
# [4] = compound: FC(F)(F)C(F)(C(F)(F)F)C(F)(F)C(F)(F)CC1CO1 [3-(Perfluoro-3-methylbutyl)-1,2-propenoxide]; details: in DMSO
# Protocol: as §1
# [5] = compound: OCCCC(F)(F)C(F)(F)C(F)(F)C(F)(F)C(F)(F)C(F)(F)C(F)(F)F [7:3 Fluorotelomer alcohol]; details: 6700 nM; in DMSO
# Protocol: as §1
# [6] = compound: O=C(O)C(F)(F)C(F)(F)OC(F)(F)F [Perfluoro-3-methoxypropanoic acid]; details: in DMSO
# Protocol: as §1
# [7] = compound: OCCC(F)(F)C(F)(F)C(F)(F)C(F)(F)C(F)(F)C(F)(F)F [6:2 Fluorotelomer alcohol]; details: in DMSO
# Protocol: as §1
Test System,level (log10) ([1]; 6700 nM),level (log10) ([1]; 20000 nM),level (log10) ([1]; 60000 nM),level (log10) ([2]; 6700 nM),level (log10) ([2]; 20000 nM),level (log10) ([2]; 60000 nM),level (log10) ([3]; 6700 nM),level (log10) ([3]; 20000 nM),level (log10) ([4]; 6700 nM),level (log10) ([4]; 20000 nM),level (log10) [5],level (log10) ([6]; 6700 nM),level (log10) ([6]; 20000 nM),level (log10) ([6]; 60000 nM),level (log10) ([7]; 6700 nM),level (log10) ([7]; 20000 nM)
KF3CT:CD54/ICAM-1,-0.0065 ± 0.015,-0.012 ± 0.0085,-0.014 ± 0.016,0.005 ± 0.0028,-0.0115 ± 0.0035,-0.006 ± 0.011,-0.0145 ± 0.00071,-0.002,0.0055 ± 0.011,-0.0105 ± 0.0064,-0.022 ± 0.0071,0.019 ± 0.0085,0.009 ± 0.018,0.009 ± 0.0071,0.011 ± 0.0057,0.0155 ± 0.0021
CASM3C:CD141/Thrombomodulin,-0.0315 ± 0.012,0.0015 ± 0.0092,0.0225 ± 0.033,-0.0005 ± 0.016,0 ± 0.081,-0.0145 ± 0.028,0.0015 ± 0.022,-0.0145 ± 0.0078,0.003,0 ± 0.044,0 ± 0.0014,-0.003 ± 0.0028,-0.014 ± 0.0099,0.021 ± 0.04,0.0235 ± 0.0092,0.005 ± 0.023
HDF3CGF:TIMP-1,0.0075 ± 0.023,0.002 ± 0.011,0 ± 0.055,-0.015 ± 0.031,-0.007 ± 0.0014,0.0115 ± 0.021,0.014 ± 0.016,0.008 ± 0.017,-0.012 ± 0.035,-0.035 ± 0.033,-0.012,-0.0285 ± 0.026,0.0185 ± 0.005,0.036 ± 0.071,0.0005 ± 0.018,0.0095 ± 0.028
CASM3C:Serum Amyloid A,-0.004 ± 0.011,0.0215 ± 0.0035,-0.0235 ± 0.0092,-0.056 ± 0.038,-0.083 ± 0.055,-0.0715 ± 0.11,-0.0145 ± 0.0035,-0.011 ± 0.0085,-0.0235 ± 0.012,0.0035 ± 0.047,-0.0135 ± 0.028,-0.0155 ± 0.0064,-0.017 ± 0.0099,0.008 ± 0.069,-0.013 ± 0.0028,-0.009 ± 0.0042
lMphg:SRB,-0.008 ± 0.0042,0 ± 0.0028,-0.0125 ± 0.0021,-0.0035 ± 0.019,-0.005 ± 0.0057,0.0025 ± 0.0021,0.0125 ± 0.00071,0.019 ± 0.0028,-0.007 ± 0.014,-0.0045 ± 0.0078,-0.0085 ± 0.0064,-0.006 ± 0.0014,-0.0185 ± 0.005,0 ± 0.0028,-0.014 ± 0.017,-0.0125 ± 0.0021
HDF3CGF:TIMP-2,-0.018 ± 0.0057,-0.008 ± 0.0071,-0.0275 ± 0.0078,-0.0295 ± 0.066,-0.01 ± 0.044,-0.003 ± 0.059,0.025 ± 0.013,-0.0115 ± 0.012,-0.043 ± 0.081,-0.0475 ± 0.1,0.0005 ± 0.013,-0.029 ± 0.047,0.001 ± 0.0099,-0.01 ± 0.023,-0.007 ± 0.025,0.004 ± 0.021
lMphg:CXCL8/IL-8,-0.0125 ± 0.066,-0.001 ± 0.017,-0.005 ± 0.011,0.024 ± 0.0028,0.0145 ± 0.0021,0.0315 ± 0.011,0.0055 ± 0.026,0.0125 ± 0.064,0.0165 ± 0.035,0.052 ± 0.023,0.01 ± 0.013,-0.03 ± 0.065,-0.0275 ± 0.025,-0.001 ± 0.044,-0.0115 ± 0.056,-0.0125 ± 0.018
HDF3CGF:Proliferation 72hr,-0.054 ± 0.0057,-0.023 ± 0.0042,-0.099 ± 0.0014,-0.0415 ± 0.012,-0.03 ± 0.0042,0.066 ± 0.02,0.103 ± 0.028,-0.046 ± 0.028,0 ± 0.034,0.0055 ± 0.0078,-0.49 ± 0.0042,-0.028 ± 0.0085,0.0125 ± 0.016,0.0225 ± 0.023,-0.007 ± 0.05,0.0005 ± 0.086
